# Laboratory results as given in patent publication US5057414A, “Method for the determination of the activity of serine proteases or serine protease inhibitors” (Behringwerke Aktiengesellschaft, priority 1987, dated 1991).
# B1: alpha2 -antiplasmin: specific plasmin inhibitor (protein, UniProt P08697 40-491, looked up)
# Alpha-2-antiplasmin: NQEQVSPLTLLKLGNQEPGGQTALKSPPGVCSRDPTPEQTHRLARAMMAFTADLFSLVAQTSTCPNLILSPLSVALALSHLALGAQNHTLQRLQQVLHAGSGPCLPHLLSRLCQDLGPGAFRLAARMYLQKGFPIKEDFLEQSEQLFGAKPVSLTGKQEDDLANINQWVKEATEGKIQEFLSGLPEDTVLLLLNAIHFQGFWRNKFDPSLTQRDSFHLDEQFTVPVEMMQARTYPLRWFLLEQPEIQVAHFPFKNNMSFVVLVPTHFEWNVSQVLANLSWDTLHPPLVWERPTKVRLPKLYLKHQMDLVATLSQLGLQELFQAPDLRGISEQSLVVSGVQHQSTLELSEVGVEAAAATSIAMSRMSLSSFSVNRPFLFFIFEDTTGLPLFVGSVRNPNPSAPRELKEQQDSPGNKDFLQSLKGFPRGDKLFGPDLKLVPPMEEDYPQFGSPK
# B2: PAI2: placental inhibitors: these include the inhibitors released from the placenta and leukocytes (protein, UniProt P05120 1-415, looked up)
# Plasminogen activator …: MEDLCVANTLFALNLFKHLAKASPTQNLFLSPWSISSTMAMVYMGSRGSTEDQMAKVLQFNEVGANAVTPMTPENFTSCGFMQQIQKGSYPDAILQAQAADKIHSSFRSLSSAINASTGNYLLESVNKLFGEKSASFREEYIRLCQKYYSSEPQAVDFLECAEEARKKINSWVKTQTKGKIPNLLPEGSVDGDTRMVLVNAVYFKGKWKTPFEKKLNGLYPFRVNSAQRTPVQMMYLREKLNIGYIEDLKAQILELPYAGDVSMFLLLPDEIADVSTGLELLESEITYDKLNKWTSKDKMAEDEVEVYIPQFKLEEHYELRSILRSMGMEDAFNKGRANFSGMSERNDLFLSEVFHQAMVDVNEEGTEAAAGTGGVMTGRTGHGGPQFVADHPFLFLIMHKITNCILFFGRFSSP
# How the values were obtained:
# urokinase [1] = test: Comparison Experiment 1: conversion of chromogenic plasmin substrate / activity of urokinase in plasma with lysine and/or ammonium peroxodisulfate; assay type: biochemical
# Description: 50μl of a plasma which is deficient in alpha2 -antiplasmin and has been prepared by immunoadsorption, as well as 1:2, 1:4 and 1:8 mixtures of this deficient plasma with normal plasma, where mixed with 200 μl or solution C (plasminogen activator reagent).
# […] of a 3 mM solution of H-D-Phe-Tyr-Arg-ANBA . 2 HCl in solution A and 500 µl of a plasminogen solution (2 CTA-U/ml) in solution A were added to the samples, the mixtures were incubated at 37° C. for 20 min, subsequently 100 μL of 8.5 M acetic acid were used to stop, and the extinction at 405 nm was determined. […] It is evident that addition of lysine increases the activity of urokinase by more than 100%.
# plasmin [2] = test: Comparison Experiments 5, 6, 8: optimization of reagent concentration in functional PAI (PA) determination (generated plasmin activity); assay type: biochemical
# Description: (§1) Preincubation of 50 μl of sample with 200 μl of a variant of solution C (plasminogen activator dissolved in basic buffer U) at 37° C. for five minutes was followed by addition of 200 μl of a variant of plasminogen reagent (F), composed of 100 mM Tris-HCl pH 8.4, crosslinked polypeptides 1%, ^R Triton×100 0.1%, 100 mM NaCl without tran-examic acid, NaN3 0.01 % (basic buffer U) with 10 CTA-U/ml plasminogen and 200 μl of distilled water with 10 mM chloramine T, 3 mM tranexamic acid to the reaction mixture. The mixture was incubated at 37° C. for 5 min, and 500 μl of 0.6 mM chromogenic plasmin substrate HD-Nva-CHA-Lys-pNA in 480 mM NaCl (or, as a substitute, 200 mM CsCl) were added. The resultant linear change in extinction, delta A/min, at 405 nm was followed.
# [3] = molecular target: T1, plasmin and alpha2-antiplasmin (Homo sapiens, UniProt P00747); test: Slowing of the reaction between plasmin and alpha2-antiplasmin by omega-amino carboxylic acids; assay type: biochemical; conditions: lysine 10 to 3,000 mM, epsilon-aminocaproic acid 2 to 500 mM, tranexamic acid 0.1 to 50 mM
# T1 construct: native proteins
# [4] = tested on: antithrombin III (AT III); test: Comparison Experiment 13: oxidative inactivation of antithrombin III; assay type: biochemical; conditions: 37° C., 15 min preincubation, pH 8.8
# Description: 50 pmol of AT III in 50 μl of 50 mM Tris, 100 mM NaCl, 0.1% (w/v) Triton×100, pH 8.8 buffer, are preincubated with increasing quantities of chloramine T or hydrogen peroxide in 50 μl of distilled water at 37° C. for 15 min. Then 3 pmol of human alpha-thrombin, 2.5 IU of heparin and 2 KIU of aprotinin in 500 μl of 100 mM Tris, 150 mM NaCl, pH 8.2, are added, and the mixture is incubated at 37° C. for 5 min. Addition of 500 μl of 0.4 mM H-D-CHA-But-ArgpNA was followed by further incubation for 3 min (37° C.). The reaction was stopped by 100 μl of 8.5 M acetic acid, and the change in extinction at 405 nm was determined.
# human alpha-thrombin = test: Comparison Experiment 13: oxidation resistance of thrombin; assay type: biochemical; conditions: 500 nmol of chloramine T or 500 times the dose of H202
# [5] = tested on: plasminogen activator inhibitors; conditions: Lawrence and Loskutoff, Biochemistry 25, 6351-6355, 1986; cited from earlier work
# plasmin [6] = test: Comparison Experiment 11: effect of chloramine T and/or tranexamic acid on plasmin activity in the functional PAI assay; assay type: biochemical; conditions: for delta A/4 min: 405 nm
# Description: as §1
# PAI1 = test: Example 5a: determination of PAI2 via preincubation with polycation-containing PA reagent; assay type: biochemical; conditions: protamine chloride 100 U/ml or polylysine 500 μg/ml
# plasmin [7] = test: Oxidative inactivation of alpha2-antiplasmin; assay type: biochemical
# Description: Accurate determination of the said proteins requires that specific and non-specific plasmin inhibitors be quantitatively inactivated. […] This effect corresponds to expectations inasmuch as the plasminogen activator inhibitors belong to the family of serine protease inhibitors (serpins) whose archetype, namely alpha1 -protease inhibitor, contains an oxidizable methionine in the active center. Oxidation of this methionine results in a methionine sulfoxide, and the inhibitory functions are lost with the formation thereof. Lawrence and Loskutoff show, both for alpha1 -protease inhibitor and for plasminogen activator inhibitor, that the inactivation is reversible by treatment with dithiothreitol and methionine-sulfoxide-peptide reductase, i.e. under the conditions described therein the plasminogen activator inhibitor is demonstrably inactivated by oxidation. It was all the less to be expected that the complexes of plasminogen activator and plasminogen activator inhibitor produced in the reaction remain intact even under the oxidizing conditions according to the invention. […] Furthermore, it is very remarkable that the reaction of a non-inhibited plasminogen activator with its substrate, a natural or synthetic plasminogen, as well as the enzymatic reactions dependent thereon, take place undisturbed during the oxidation process.
# plasmin [8] = conditions: Shieh and Travis, J.Biol.Chem. 262, 6055-6059, 1987; cited from earlier work
# urokinase [9] = test: Example 4: oxidation sensitivity of PAI1 and PAI2 (oxidation before addition of plasminogen activator reagent); assay type: biochemical; conditions: oxidation with chloramine T before addition of plasminogen activator reagent
# Description: 50 μl of sample were incubated with 500 μl of solution A (basic buffer) and 50 μl of solution B (oxidizing reagent) at 37° C. for 10 min. Addition of 200 μl of solution C (plasminogen activator reagent) was followed by incubation at 37° C. for 5 min. The substrate conversion was started by addition of 200 μl of solution E (plasmin substrate reagent) and 100 μl of solution F (plasminogen reagent) and the mixture was incubated at 37° C. for 15 min. After addition of 100 μl of 8.5 M acetic acid, the extinction at 405 nm was determined.
# T1 sequence (P00747 97-810, one chain of several): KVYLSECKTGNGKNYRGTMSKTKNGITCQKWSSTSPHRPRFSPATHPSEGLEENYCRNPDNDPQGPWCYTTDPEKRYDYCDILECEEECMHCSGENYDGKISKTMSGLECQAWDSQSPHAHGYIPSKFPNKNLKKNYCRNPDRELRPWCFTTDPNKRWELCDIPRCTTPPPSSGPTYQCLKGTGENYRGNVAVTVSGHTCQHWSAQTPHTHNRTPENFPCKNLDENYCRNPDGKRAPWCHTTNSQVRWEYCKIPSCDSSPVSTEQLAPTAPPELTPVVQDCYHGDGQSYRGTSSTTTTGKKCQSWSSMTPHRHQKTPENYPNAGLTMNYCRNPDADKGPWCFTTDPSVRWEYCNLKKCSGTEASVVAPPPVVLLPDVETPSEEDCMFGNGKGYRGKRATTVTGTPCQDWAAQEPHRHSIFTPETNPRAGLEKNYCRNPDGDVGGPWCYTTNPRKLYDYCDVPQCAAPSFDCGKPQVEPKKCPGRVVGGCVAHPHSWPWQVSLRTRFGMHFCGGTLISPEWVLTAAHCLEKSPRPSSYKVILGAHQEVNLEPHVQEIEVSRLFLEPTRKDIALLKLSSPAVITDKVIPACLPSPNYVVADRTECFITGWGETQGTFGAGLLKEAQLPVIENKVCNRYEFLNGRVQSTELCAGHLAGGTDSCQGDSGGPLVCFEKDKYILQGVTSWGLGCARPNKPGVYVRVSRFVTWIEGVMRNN
molecule,measurement,setting,value
N.N.O=S(=O)(O)OOS(=O)(=O)O [ammonium peroxodisulfate],dependence of the conversion of the chromogenic plasmin substrate on the quantity of alpha2-antiplasmin in the plasma,urokinase [1]; 5% (NH4)2S2O8 in distilled water,does not depend on the quantity of alpha2 -antiplasmin
O=S(=O)(NCl)c1ccccc1 [chloramine B],results with chloramine B in place of chloramine T,plasmin [2]; Comparison Experiment 5b,the same as represented for chloramine T
NCCCCCC(=O)O [epsilon-aminocaproic acid],factor by which the reaction between plasmin and alpha2-antiplasmin is slowed down,[3],at least 10
OO [hydrogen peroxide],"dose of hydrogen peroxide inactivating 50 pmol of AT III, as a multiple",[4],500 times the dose
same,activity of thrombin at the dose inactivating AT III,human alpha-thrombin,without the activity of thrombin being impaired
same,concentration inactivating plasminogen activator inhibitors,[5],about 10 mM
NCCCC[C@H](N)C(=O)O [lysine],increase of the activity of urokinase,urokinase [1]; addition of lysine (10% lysine in distilled water),more than 100%
same,increase in the extinction compared with the sample without omega-amino carboxylic acid,urokinase [1]; without use of an oxidizing agent,more than 100%
same,factor by which the reaction between plasmin and alpha2-antiplasmin is slowed down,[3],at least 10
NC[C@H]1CC[C@H](C(=O)O)CC1 [tranexamic acid],factor by which the reaction between plasmin and alpha2-antiplasmin is slowed down,[3],at least 10
same,tranexamic acid concentration at maximum,"plasmin [2]; in the reaction mixture, basic buffer and PAI-deficient plasma",1 to 4 mM
same,increase in plasmin activity with alpha2-antiplasmin-deficient plasma compared with normal plasma,plasmin [6],about 70%
same,delta A/4 min,plasmin [6]; Normal plasma without alpha2-antiplasmin,829 mA
same,delta A/4 min,plasmin [6]; Normal plasma,488 mA
polylysine,PAI measured in presence of polycation in the plasminogen activator reagent,PAI1,only PAI2 (and not PAI1) was measured
protamine chloride,PAI measured in presence of polycation in the plasminogen activator reagent,PAI1,only PAI2 (and not PAI1) was measured
B1,inactivation of alpha2-antiplasmin under the oxidizing conditions of the invention,plasmin [7],nearly completely inactivated
same,resistance of alpha2-antiplasmin to oxidation,plasmin [8],resistant to oxidation
B2,sensitivity to oxidation,urokinase [9],less sensitive to oxidation
